From publication PMC9411704, “Assessment of the Carcinogenic Potential of Pretomanid in Transgenic Tg.rasH2 Mice” (International Journal of Toxicology, 2022)

What was measured:
[1] = Mass balance study in humans using 14C-labelled pretomanid; format: in vivo; details: human, plasma, oral; 6% of the pretomanid therapeutic AUC0-24, 200 mg/day; read-out: Estimated human AUC0-24 of M50
[2] = tested on: CD-1(ICR) BR mice, bone marrow erythrocytes; test: Bone marrow micronucleus assay in mice; format: in vivo
Protocol: Groups of male CD-1®(ICR) BR mice were given single oral doses of vehicle (0.4% CMC), positive control article, or pretomanid at 125, 500 or 2000 mg/kg and then were euthanized approximately 24 or 48 hours later to harvest femoral bone marrow. Bone marrow was mounted on slides and stained with May-Grünwald solution and Giemsa. For each mouse, 500 red blood cells were examined to determine the ratio of immature red blood cells (polychromatophilic erythrocytes or PCEs) to mature red blood cells (normochromatophilic erythrocytes of NCEs) and 2000 PCEs were examined to determine the ratio of micronucleated PCEs (mnPCEs) to normal PCEs.
The mean PCE-to-NCE ratios in various groups were compared to reach conclusions about assay validity and effects on erythropoiesis. The mean mnPCE-to-PCE ratios in various groups were compared to reach conclusions about assay validity and clastogenicity. Comparisons were made using an analysis of variance on untransformed mnPCE-to-PCE ratios for each mouse and on untransformed PCE-to-NCE ratios when the variances were homogeneous. Ranked proportions were used for heterogeneous variances. […] Comparisons were made at the 5% probability level.

| Structure (SMILES) | AUC(0-t) [1] [ng·h/mL] | mnPCE-to-PCE ratio ([2]; any dose level (125, 500, 2000 mg/kg), 24 or 48 h) | Effect on erythropoiesis (PCE:NCE ratio) ([2]; single oral 125, 500 or 2000 mg/kg) | Clastogenic potential in vivo ([2]; single oral doses up to 2000 mg/kg) |
| --- | --- | --- | --- | --- |
| O=[N+]([O-])c1cn2c(n1)OC[C@@H](O)C2 [M50] | ~3000 |  |  |  |
| O=[N+]([O-])c1cn2c(n1)OC[C@@H](OCc1ccc(OC(F)(F)F)cc1)C2 [Pretomanid, (6S)-2-nitro-6-{[4-(trifluoromethoxy)benzyl]oxy}-6,7-dihydro-5H-imidazo[2,1-b][1,3]oxazine] |  | did not significantly increase | did not affect erythropoiesis | negative |
